{"source": "patent US5543415A", "about": "“Antidepressants” (Kyowa Hakko Kogyo Co., Ltd., priority 1992, dated 1996)", "data": [{"system": "ddY-strain male mice", "assay": "Acute Toxicity Test (minimum lethal dose, oral)", "type": "in vivo", "settings": "seven days after administration", "experimental": "Test compounds were orally administered to groups of ddY-strain male mice weighing 20±1 g, each group consisting of three mice. Seven days after the administration, minimum lethal dose (MLD) of each compound was determined by observing the mortality.", "units": {"MLD (minimum lethal dose)": "mg/kg"}, "values": [{"smiles": "CCn1c(=O)c2[nH]c(C(F)=Cc3ccccc3)nc2n(CC)c1=O", "note": "(stereo in doubt) [Compound 137, (E)-1,3-Diethyl-8-(α-fluorostyryl)xanthine]", "MLD (minimum lethal dose)": "> 100"}, {"smiles": "CCn1c(=O)c2c(nc(C(F)=Cc3ccccc3)n2C)n(CC)c1=O", "note": "(stereo in doubt) [Compound 138, (E)-1,3-Diethyl-8-(α-fluorostyryl)-7-methylxanthine]", "MLD (minimum lethal dose)": "> 100"}, {"smiles": "CCCCn1c(=O)c2nc(/C=C/c3cc(OC)c(OC)c(OC)c3)[nH]c2n(CCCC)c1=O", "note": "[Compound 8, (E)-1,3-Dibutyl-8-(3,4,5-trimethoxystyryl)xanthine]", "MLD (minimum lethal dose)": "> 100"}, {"smiles": "CCCCn1c(=O)c2c(nc(/C=C/c3cc(OC)c(OC)c(OC)c3)n2C)n(CCCC)c1=O", "note": "[Compound 9, (E)-1,3-Dibutyl-7-methyl-8-(3,4,5-trimethoxystyryl)xanthine]", "MLD (minimum lethal dose)": "> 300"}, {"smiles": "CCCn1c(=O)c2nc(/C=C/c3cc(OC)c(OC)c(OC)c3)[nH]c2n(CCC)c1=O", "note": "[Compound 10, (E)-1,3-dipropyl-8-(3,4,5-trimethoxystyryl)xanthine]", "MLD (minimum lethal dose)": "> 300"}, {"smiles": "COc1cc(/C=C/c2nc3c(=O)n(C)c(=O)n(C)c3[nH]2)cc(OC)c1OC", "note": "[Compound 11, (E)-8-(3,4,5-trimethoxystyryl)theophylline]", "MLD (minimum lethal dose)": "> 300"}, {"smiles": "C=CCn1c(=O)c2nc(/C=C/c3cc(OC)c(OC)c(OC)c3)[nH]c2n(CC=C)c1=O", "note": "[Compound 12, (E)-1,3-diallyl-8-(3,4,5-trimethoxystyryl)xanthine]", "MLD (minimum lethal dose)": "> 300"}, {"smiles": "CCCn1c(=O)c2[nH]c(/C=C/c3ccc(OC)c(C)c3C)nc2n(CCC)c1=O", "note": "[Compound 13, (E)-8-(4-Methoxy-2,3-dimethylstyryl)-1,3-dipropylxanthine]", "MLD (minimum lethal dose)": "> 300"}, {"smiles": "CCCn1c(=O)c2[nH]c(/C=C/c3ccc(OC)c(C)c3OC)nc2n(CCC)c1=O", "note": "[Compound 15, (E)-8-(2,4-Dimethoxy-3-methylstyryl)-1,3-dipropylxanthine]", "MLD (minimum lethal dose)": "> 100"}, {"smiles": "CCCn1c(=O)c2c(nc(/C=C/c3ccc(OC)c(C)c3OC)n2C)n(CCC)c1=O", "note": "[Compound 16, (E)-8-(2,4-Dimethoxy-3-methylstyryl)-7-methyl-1,3-dipropylxanthine]", "MLD (minimum lethal dose)": "> 300"}, {"smiles": "CCCn1c(=O)c2[nH]c(/C=C/c3ccc4c(c3)OCCO4)nc2n(CCC)c1=O", "note": "[Compound 17, (E)-8-[2-(1,4-Benzodioxan-6-yl)vinyl]-1,3-dipropylxanthine]", "MLD (minimum lethal dose)": "> 300"}, {"smiles": "CCCn1c(=O)c2[nH]c(/C=C/c3ccc4c(c3)OCO4)nc2n(CCC)c1=O", "note": "[Compound 19, (E)-8-(3,4-Methylenedioxystyryl)-1,3-dipropylxanthine]", "MLD (minimum lethal dose)": "> 300"}, {"smiles": "CCCn1c(=O)c2c(nc(/C=C/c3ccc4c(c3)OCO4)n2C)n(CCC)c1=O", "note": "[Compound 20, (E)-7-Methyl-8-(3,4-methylenedioxystyryl)-1,3-dipropylxanthine]", "MLD (minimum lethal dose)": "> 300"}, {"smiles": "CCCn1c(=O)c2nc(/C=C/c3ccc(OC)c(OC)c3OC)[nH]c2n(CCC)c1=O", "note": "[Compound 21, (E)-1,3-Dipropyl-8-(2,3,4-trimethoxystyryl)xanthine]", "MLD (minimum lethal dose)": "> 300"}, {"smiles": "CCCn1c(=O)c2nc(/C=C/c3cc(OC)c(OC)cc3OC)[nH]c2n(CCC)c1=O", "note": "[Compound 23, (E)-1,3-Dipropyl-8-(2,4,5-trimethoxystyryl)xanthine]", "MLD (minimum lethal dose)": "> 300"}, {"smiles": "CCCn1c(=O)c2c(nc(/C=C/c3cc(OC)c(OC)cc3OC)n2C)n(CCC)c1=O", "note": "[Compound 24, (E)-7-Methyl-1,3-dipropyl-8-(2,4,5-trimethoxystyryl)xanthine]", "MLD (minimum lethal dose)": "> 300"}, {"smiles": "CCCn1c(=O)c2[nH]c(/C=C/c3ccc(OC)cc3OC)nc2n(CCC)c1=O", "note": "[Compound 25, (E)-8-(2,4-Dimethoxystyryl)-1,3-dipropylxanthine]", "MLD (minimum lethal dose)": "> 100"}, {"smiles": "CCCn1c(=O)c2c(nc(/C=C/c3ccc(OC)cc3OC)n2C)n(CCC)c1=O", "note": "[Compound 26, (E)-8-(2,4-Dimethoxystyryl)-7-methyl-1,3-dipropylxanthine]", "MLD (minimum lethal dose)": "> 300"}, {"smiles": "CCCn1c(=O)c2[nH]c(/C=C/c3cc(OC)c(OCc4ccccc4)c(OC)c3)nc2n(CCC)c1=O", "note": "[Compound 27, (E)-8-(4-Benzyloxy-3,5-dimethoxystyryl)-1,3-dipropylxanthine]", "MLD (minimum lethal dose)": "> 100"}, {"smiles": "CCCn1c(=O)c2c(nc(/C=C/c3cc(OC)c(OCc4ccccc4)c(OC)c3)n2C)n(CCC)c1=O", "note": "[Compound 28, (E)-8-(4-Benzyloxy-3,5-dimethoxystyryl)-7-methyl-1,3-dipropylxanthine]", "MLD (minimum lethal dose)": "> 100"}, {"smiles": "CCCn1c(=O)c2[nH]c(/C=C/c3cccc(OC)c3OC)nc2n(CCC)c1=O", "note": "[Compound 29, (E)-8-(2,3-Dimethoxystyryl)-1,3-dipropylxanthine]", "MLD (minimum lethal dose)": "> 100"}, {"smiles": "CCCn1c(=O)c2c(nc(/C=C/c3cccc(OC)c3OC)n2C)n(CCC)c1=O", "note": "[Compound 30, (E)-8-(2,3-Dimethoxystyryl)-7-methyl-1,3-dipropylxanthine]", "MLD (minimum lethal dose)": "> 300"}, {"smiles": "CCCn1c(=O)c2[nH]c(/C=C/c3ccc(C)c(C)c3)nc2n(CCC)c1=O", "note": "[Compound 31, (E)-8-(3,4-Dimethylstyryl)-1,3-dipropylxanthine]", "MLD (minimum lethal dose)": "> 100"}, {"smiles": "CCCn1c(=O)c2c(nc(/C=C/c3ccc(C)c(C)c3)n2C)n(CCC)c1=O", "note": "[Compound 32, (E)-8-(3,4-Dimethylstyryl)-7-methyl-1,3-dipropylxanthine]", "MLD (minimum lethal dose)": "> 300"}, {"smiles": "CCCn1c(=O)c2nc(/C=C/c3cc(OC)cc(OC)c3)[nH]c2n(CCC)c1=O", "note": "[Compound 33, (E)-8-(3,5-Dimethoxystyryl)-1,3-dipropylxanthine]", "MLD (minimum lethal dose)": "> 100"}, {"smiles": "CCCn1c(=O)c2c(nc(/C=C/c3cc(OC)cc(OC)c3)n2C)n(CCC)c1=O", "note": "[Compound 34, (E)-8-(3,5-Dimethoxystyryl)-7-methyl-1,3-dipropylxanthine]", "MLD (minimum lethal dose)": "> 300"}, {"smiles": "CCCn1c(=O)c2[nH]c(/C=C/c3cccc([N+](=O)[O-])c3)nc2n(CCC)c1=O", "note": "[Compound 35, (E)-8-(3-Nitrostyryl)-1,3-dipropylxanthine]", "MLD (minimum lethal dose)": "> 100"}, {"smiles": "CCCn1c(=O)c2c(nc(/C=C/c3cccc([N+](=O)[O-])c3)n2C)n(CCC)c1=O", "note": "[Compound 36, (E)-7-Methyl-8-(3-nitrostyryl)-1,3-dipropylxanthine]", "MLD (minimum lethal dose)": "> 100"}, {"smiles": "CCCn1c(=O)c2nc(/C=C/c3cccc(F)c3)[nH]c2n(CCC)c1=O", "note": "[Compound 37, (E)-8-(3-Fluorostyryl)-1,3-dipropylxanthine]", "MLD (minimum lethal dose)": "> 100"}, {"smiles": "CCCn1c(=O)c2c(nc(/C=C/c3cccc(F)c3)n2C)n(CCC)c1=O", "note": "[Compound 38, (E)-8-(3-Fluorostyryl)-7-methyl-1,3-dipropylxanthine]", "MLD (minimum lethal dose)": "> 300"}, {"smiles": "CCCn1c(=O)c2nc(/C=C/c3cccc(Cl)c3)[nH]c2n(CCC)c1=O", "note": "[Compound 39, (E)-8-(3-Chlorostyryl)-1,3-dipropylxanthine]", "MLD (minimum lethal dose)": "> 100"}, {"smiles": "CCCn1c(=O)c2c(nc(/C=C/c3cccc(Cl)c3)n2C)n(CCC)c1=O", "note": "[Compound 40, (E)-8-(3-Chlorostyryl)-7-methyl-1,3-dipropylxanthine]", "MLD (minimum lethal dose)": "> 300"}, {"smiles": "CCCn1c(=O)c2[nH]c(/C=C/c3ccccc3Cl)nc2n(CCC)c1=O", "note": "[Compound 41, (E)-8-(2-Chlorostyryl)-1,3-dipropylxanthine]", "MLD (minimum lethal dose)": "> 100"}, {"smiles": "CCCn1c(=O)c2c(nc(/C=C/c3ccccc3Cl)n2C)n(CCC)c1=O", "note": "[Compound 42, (E)-8-(2-Chlorostyryl)-7-methyl-1,3-dipropylxanthine]", "MLD (minimum lethal dose)": "> 100"}, {"smiles": "CCCn1c(=O)c2[nH]c(/C=C/c3ccccc3F)nc2n(CCC)c1=O", "note": "[Compound 43, (E)-8-(2-Fluorostyryl)-1,3-dipropylxanthine]", "MLD (minimum lethal dose)": "> 100"}, {"smiles": "CCCn1c(=O)c2c(nc(/C=C/c3ccccc3F)n2C)n(CCC)c1=O", "note": "[Compound 44, (E)-8-(2-Fluorostyryl)-7-methyl-1,3-dipropylxanthine]", "MLD (minimum lethal dose)": "> 100"}, {"smiles": "CCCn1c(=O)c2[nH]c(/C=C/c3cc(C)c(OC)cc3C)nc2n(CCC)c1=O", "note": "[Compound 45, (E)-8-(4-Methoxy-2,5-dimethylstyryl)-1,3-dipropylxanthine]", "MLD (minimum lethal dose)": "> 300"}, {"smiles": "CCCn1c(=O)c2c(nc(/C=C/c3cc(C)c(OC)cc3C)n2C)n(CCC)c1=O", "note": "[Compound 46, (E)-8-(4-Methoxy-2,5-dimethylstyryl)-7-methyl-1,3-dipropylxanthine]", "MLD (minimum lethal dose)": "> 300"}, {"smiles": "CCCn1c(=O)c2c(nc(/C=C\\c3ccc(OC)c(OC)c3)n2C)n(CCC)c1=O", "note": "[Compound 47, (Z)-8-(3,4-Dimethoxystyryl)-7-methyl-1,3-dipropylxanthine]", "MLD (minimum lethal dose)": "> 300"}, {"smiles": "CCCn1c(=O)c2[nH]c(/C=C/c3ccc(OCC)cc3)nc2n(CCC)c1=O", "note": "[Compound 48, (E)-8-(4-Ethoxystyryl)-1,3-dipropylxanthine]", "MLD (minimum lethal dose)": "> 100"}, {"smiles": "CCCOc1ccc(/C=C/c2nc3c([nH]2)c(=O)n(CCC)c(=O)n3CCC)cc1", "note": "[Compound 50, (E)-8-(4-Propoxystyryl)-1,3-dipropylxanthine]", "MLD (minimum lethal dose)": "> 100"}, {"smiles": "CCCOc1ccc(/C=C/c2nc3c(c(=O)n(CCC)c(=O)n3CCC)n2C)cc1", "note": "[Compound 51, (E)-7-Methyl-8-(4-propoxystyryl)-1,3-dipropylxanthine]", "MLD (minimum lethal dose)": "> 300"}, {"smiles": "CCCCOc1ccc(/C=C/c2nc3c([nH]2)c(=O)n(CCC)c(=O)n3CCC)cc1", "note": "[Compound 52, (E)-8-(4-Butoxystyryl)-1,3-dipropylxanthine]", "MLD (minimum lethal dose)": "> 100"}, {"smiles": "CCCCOc1ccc(/C=C/c2nc3c(c(=O)n(CCC)c(=O)n3CCC)n2C)cc1", "note": "[Compound 53, (E)-8-(4-Butoxystyryl)-7-methyl-1,3-dipropylxanthine]", "MLD (minimum lethal dose)": "> 300"}, {"smiles": "CCCn1c(=O)c2c(nc(/C=C/c3ccc(O)c(O)c3)n2C)n(CCC)c1=O", "note": "[Compound 54, (E)-8-(3,4-Dihydroxystyryl)-7-methyl-1,3-dipropylxanthine]", "MLD (minimum lethal dose)": "> 100"}]}]}
